Experimental data published in patent US4853221A, “Method for treating non-small cell lung cancer, head and neck cancers and breast cancer” (Warner-Lambert Company, priority 1987, dated 1989).

Legend:
[1] = system: colon carcinoma; test: Phase I clinical trials, colon carcinoma; assay type: in vivo, human; conditions: single agent
Procedure: (§1) Several Phase I clinical trials employing trimetrexate in human patients were carried out. In one study, 36 patients were treated with trimetrexate as a single agent at daily doses of 0.5 mg/m^2 /day to 12 mg/m^2 /day administered intravenously for five days.
(§2) In additional Phase I clinical studies, patients were administered trimetrexate with single intravenous doses ranging between 5 and 450 mg/m^2 and with weekly doses of slightly greater than 100 mg/m^2.

[2] = system: head and neck (squamous) cancers; test: Phase I clinical trials, head and neck (squamous) cancers; assay type: in vivo, human; conditions: single agent
Procedure: as §1, §2

[3] = system: Sarcoma-180; test: Inhibition of Sarcoma-180 cell growth in vitro; assay type: cell-based; conditions: Mus musculus, 48 h; Murine Sarcoma-180; read-out: ED50 (the source's name)
Procedure: (§3) Two leukemia cell lines (L1210 and L5178Y) and two solid tumor cell lines (Sarcoma 180 and Walker 256) were used in these studies.
(§4) Logarithmically growing L1210 cells (approximately 3×10^5 cells/ml) were diluted with Fischer's medium (containing 10% horse serum) to an approximate concentration of 5×10^4 cells/ml. Cells were planted in duplicate into 15 ml culture tubes containing either no drug or various amounts of drug, and incubated for 48 hours at 37° C. before being counted.
(§5) Trimetrexate was also evaluated in a similar manner side-by-side with methotrexate for its effect on the growth of three additional murine cell lines (L5178Y, Sarcoma-180, and Walkler-256) and three human cell lines (acute myelogenous leukemia K-562, T-cell 8402, and B-cell 8392), propagated in vitro.

[4] = system: cancer of the pancreas; test: Phase I clinical trials, cancer of the pancreas; assay type: in vivo, human; conditions: single agent
Procedure: as §1, §2

[5] = system: L5178Y; test: Inhibition of L5178Y cell growth in vitro; assay type: cell-based, murine
Procedure: as §3, §4, §5

[6] = system: CD8F1 Mammary tumor; test: Antitumor activity against CD8F1 mammary tumor in mice; assay type: in vivo, mouse; conditions: for Tumor Weight Inhibition % TWI: Sc every 7 days, Days 1,8,15,22,19
Procedure: (§6) The growth inhibition properties of 5-methyl-6-[[(3,4,5-trimethoxyphenyl)amino]methyl]-2,4-quinazolinediamine (trimetrexate) against several transplanted murine tumors were evaluated employing the antitumor screening program of the Drug Evaluation Branch of the National Cancer Institute. The protocols for these tests is described in Cancer Chemotherapy Reports, 3: 1-103 (1972). The dosing schedules are results from these tests appear in Table IV.
Mouse Mammary Tumor Was propagated in CD8F1 female mice as spontaneous tumors. Approximately 10^6 cells were then implanted subcutaneously into CD8F1 mice. […] At the end of the experiment (30 days), individual tumor weights were determined by caliper measurements. Each tumor weight was calculated as described previously for colon 26 and 38 tumors. A criterion of % T/C tumor weight of 42% or less was considered indicative of activity, with a reproducible 10% T/C tumor weight or less indicative of substantive activity.
(§7) In all of the mouse tumor studies described above, routine controls consisted of matching ten normal mice (with no tumors) to each tumor-bearing treatment group and injecting them with the same drug at the same dosages, schedules, days of administration, and drug route as the tumor-bearing mice. In this way, drug-induced toxicity (lethality and weight loss) could be clearly separated from the effects of the drug on the tumors.

[7] = system: non-small cell lung cancer; test: Phase I clinical trials, non-small cell lung cancer; assay type: in vivo, human; conditions: single agent
Procedure: as §1, §2

[8] = system: Miscell. tumors; test: Human tumor cloning system, miscellaneous tumors; assay type: cell-based; conditions: one hour, 10 specimens
Text: The activity of trimetrexate was compared with that of methotrexate in tests with a human tumor cloning system (Latham, et al., Proc. Am. Assoc. Cancer Res., 24: 278 (1983)). The data from these tests appear in Table III were the activities are expressed as the numbers of tumors with 50% or greater reduction in tumor colony forming units after one hour exposure to the drug.

[9] = system: transplanted rodent tumors which are resistant to methotrexate; test: Activity against methotrexate-resistant transplanted rodent tumors; conditions: in vivo
[10] = system: Lewis lung carcinoma; test: Antitumor activity against Lewis lung carcinoma in mice; assay type: in vivo, mouse; conditions: optimal dose 40 mg/kg (dose range 40-1.25), IV daily, Days 1-9
Procedure: as §6
Percent increase in median life span (% ILS) values appearing in the tables were calculated from the formula; 100×(median life span in days of treated mice minus median life span in days of untreated mice) divided by median life span in days of untreated control mice. That is, % ILS=[100×(T-C)]/C. % T/C and %ILS are directly interconvertible by the formula % ILS=% T/C -100.
as §7

SMILES: COc1cc(NCc2ccc3nc(N)nc(N)c3c2C)cc(OC)c1OC [Trimetrexate, 5-methyl-6-[[(3,4,5-trimethoxyphenyl)amino]methyl]-2,4-quinazolinediamine]
- patients with favorable responses [1]: four
- patients with favorable responses [2]: two
- IC50 [3]: 18 nM
- patients with favorable responses [4]: one
- IC50 ([5]; Mus musculus, 48 h, Murine L5178Y, read-out: ED50 (the source's name)): 2 nM
- potency relative to methotrexate ([5]; on a molar basis): only slightly more effective on a molar basis
- Tumor Weight Inhibition % TWI ([6]; optimal dose 120 mg/kg (dose range 120-3.75)): 100%
- Tumor Weight Inhibition % TWI ([6]; optimal dose 180 mg/kg (dose range 270-35)): 100%
- antitumor activity ([6]; subcutaneously implanted): good activity
- patients with favorable responses [7]: two
- Number of Tumors with 50% or Greater Decrease in Tumor Colony Forming Units ([8]; trimetrexate 0.1 μg/ml): 2
- Number of Tumors with 50% or Greater Decrease in Tumor Colony Forming Units ([8]; trimetrexate 1.0 μg/ml): 1
- activity against methotrexate-resistant transplanted rodent tumors [9]: activity against a variety of transplanted rodent tumors
- Life Span % T/C [10]: Negligible
